Reference: ChEMBL document CHEMBL6078686, “Synthesis of 1-Hydroxy(and 1-Alkoxy, 1-Acyloxy)-1H-indoles and evaluations of their suppressive activities against tumor growth through inhibiting lactate dehydrogenase A” (Eur J Med Chem, 2025)
Active and inactive are the calls of the source. The calls are words filed in the database; no cut-off is given here.

Tests used:
[1] = test system: CCCCCCOCc1c(C(=O)OC)n(O)c2cccc(Br)c12; assay: Non-competitive inhibition of human recombinant LDHA assessed as Km in presence of pyruvate by measuring NADH fluorescence at 25 nM by Michaelis-Menten analysis
[2] = test system: CCCCCCOCc1c(C(=O)OC)n(O)c2cccc(Br)c12; assay: Non-competitive inhibition of human recombinant LDHA assessed as Km in presence of pyruvate by measuring NADH fluorescence at 100 nM by Michaelis-Menten analysis
[3] = test system: COC(=O)c1c(COCCc2ccccc2)c2c(Br)cccc2n1OC; assay: Non-competitive inhibition of human recombinant LDHA assessed as Km in presence of pyruvate by measuring NADH fluorescence at 40 nM by Michaelis-Menten analysis
[4] = test system: COC(=O)c1c(COCCc2ccccc2)c2c(Br)cccc2n1OC; assay: Non-competitive inhibition of human recombinant LDHA assessed as Km in presence of pyruvate by measuring NADH fluorescence at 160 nM by Michaelis-Menten analysis
[5] = test system: CCCCCCOCc1c(C(=O)OC)n(O)c2cccc(Br)c12; assay: Non-competitive inhibition of human recombinant LDHA assessed as Vmax in presence of pyruvate by measuring NADH fluorescence at 25 nM by Lineweaver-Burk plot analysis
[6] = test system: CCCCCCOCc1c(C(=O)OC)n(O)c2cccc(Br)c12; assay: Non-competitive inhibition of human recombinant LDHA assessed as Vmax in presence of pyruvate by measuring NADH fluorescence at 100 nM by Lineweaver-Burk plot analysis
[7] = test system: COC(=O)c1c(COCCc2ccccc2)c2c(Br)cccc2n1OC; assay: Non-competitive inhibition of human recombinant LDHA assessed as Vmax in presence of pyruvate by measuring NADH fluorescence at 40 nM by Lineweaver-Burk plot analysis
[8] = test system: COC(=O)c1c(COCCc2ccccc2)c2c(Br)cccc2n1OC; assay: Non-competitive inhibition of human recombinant LDHA assessed as Vmax in presence of pyruvate by measuring NADH fluorescence at 160 nM by Lineweaver-Burk plot analysis
[9] = test system: DLD-1; assay: Cytotoxicity against human DLD-1 cells assessed as inhibition of cell growth measured after 48 hrs incubation by MTT assay; assay type: functional
[10] = molecular target: T1, L-lactate dehydrogenase A chain (Homo sapiens, UniProt P00338); assay: Non-competitive inhibition of human recombinant LDHA assessed as ratio of Km/Vmax in presence of pyruvate by measuring NADH fluorescence at 25 nM by Lineweaver-Burk plot analysis
[11] = molecular target: T1, L-lactate dehydrogenase A chain; assay: Non-competitive inhibition of human recombinant LDHA assessed as ratio of Km/Vmax in presence of pyruvate by measuring NADH fluorescence at 100 nM by Lineweaver-Burk plot analysis
[12] = molecular target: T1, L-lactate dehydrogenase A chain; assay: Inhibition of human recombinant LDHA assessed as conversion of NADH […] at by spectrofluorometry
[13] = test system: A549; assay: Cytotoxicity against human A549 cells assessed as inhibition of cell growth measured after 48 hrs incubation by MTT assay; assay type: functional
[14] = test system: MCF7; assay: Cytotoxicity against human MCF7 cells assessed as inhibition of cell growth measured after 48 hrs incubation by MTT assay; assay type: functional
[15] = test system: PANC-1; assay: Cytotoxicity against human PANC-1 cells assessed as inhibition of cell growth measured after 48 hrs incubation by MTT assay; assay type: functional
[16] = test system: U-87 MG; assay: Cytotoxicity against human U87 cells assessed as inhibition of cell growth measured after 48 hrs incubation by MTT assay; assay type: functional, U-87MG ATCC
[17] = test system: HeLa; assay: Cytotoxicity against human HeLa cells assessed as inhibition of cell growth measured after 48 hrs incubation by MTT assay; assay type: functional
[18] = Cytotoxicity against human T HESCs cells assessed as inhibition of cell growth measured after 48 hrs incubation by MTT assay; assay type: toxicity, cell-based
[19] = Cytotoxicity against mouse Hepa1-6 cells assessed as inhibition of cell growth measured after 48 hrs incubation by MTT assay; assay type: toxicity, cell-based, Hepa 1-6
[20] = Cytotoxicity against mouse AML12 cells assessed as inhibition of cell growth measured after 48 hrs incubation by MTT assay; assay type: toxicity, cell-based
[21] = molecular target: T1, L-lactate dehydrogenase A chain; assay: Inhibition of intracellular LDHA activity in human DLD-1 cell lysate assessed as conversion of NADH […] by spectrofluorometry; assay type: subcellular
[22] = test system: DLD-1; assay: Induction of apoptosis in human DLD-1 cells assessed as caspase 9 at 20 to 40 uM measured after 48 hrs by Western blot analysis; assay type: functional, cell-based; conditions: dose 20-40 µM
[23] = test system: DLD-1; assay: Induction of apoptosis in human DLD-1 cells assessed as caspase 3 at 20 to 40 uM measured after 48 hrs by Western blot analysis; assay type: functional, cell-based; conditions: dose 20-40 µM
[24] = test system: DLD-1; assay: Induction of apoptosis in human DLD-1 cells assessed as PARP at 20 to 40 uM measured after 48 hrs by Western blot analysis; assay type: functional, cell-based; conditions: dose 20-40 µM
[25] = test system: DLD-1; assay: In vivo tumor suppressor activity against human DLD-1 cells subcutaneously implemented in male athymic mouse model assessed as reduction in tumor volume at 5 to 25 mg/kg abdominally injected daily for 2 weeks after 15 days of tumor injection measured after 2 weeks; assay type: functional, organism-based; conditions: dose 5-25 mg/kg
[26] = test system: DLD-1; assay: In vivo tumor suppressor activity against human DLD-1 cells subcutaneously implemented in male athymic mouse model assessed as reduction in tumor weight at 5 to 25 mg/kg abdominally injected daily for 2 weeks after 15 days of tumor injection measured after 2 weeks; assay type: functional, organism-based; conditions: dose 5-25 mg/kg
[27] = Toxicity in male athymic mouse subcutaneously inoculated with human DLD-1 cells assessed as weight loss at 5 to 25 mg/kg abdominally injected daily for 2 weeks after 15 days of tumor injection measured after 2 weeks; assay type: organism-based; conditions: in vivo, 336 h, dose 5-25 mg/kg
[28] = test system: DLD-1; assay: In vivo tumor suppressor activity against human DLD-1 cells subcutaneously implemented in male athymic mouse model assessed as caspase 3 activation in tumor tissue at 25 mg/kg abdominally injected daily for 2 weeks after 15 days of tumor injection measured after 2 weeks; assay type: functional, organism-based
[29] = Toxicity in male athymic mouse subcutaneously inoculated with human DLD-1 cells assessed as injury/inflammation in liver at 5 to 25 mg/kg abdominally injected daily for 2 weeks after 15 days of tumor injection measured after 2 weeks; assay type: organism-based; conditions: in vivo, 336 h, dose 5-25 mg/kg
[30] = Toxicity in male athymic mouse subcutaneously inoculated with human DLD-1 cells assessed as injury/inflammation in kidney at 5 to 25 mg/kg abdominally injected daily for 2 weeks after 15 days of tumor injection measured after 2 weeks; assay type: organism-based; conditions: in vivo, 336 h, dose 5-25 mg/kg
[31] = molecular target: T1, L-lactate dehydrogenase A chain; assay: Non-competitive inhibition of human recombinant LDHA assessed as ratio of Km/Vmax in presence of pyruvate by measuring NADH fluorescence at 40 nM by Lineweaver-Burk plot analysis
[32] = molecular target: T1, L-lactate dehydrogenase A chain; assay: Non-competitive inhibition of human recombinant LDHA assessed as ratio of Km/Vmax in presence of pyruvate by measuring NADH fluorescence at 160 nM by Lineweaver-Burk plot analysis

IC50 [12] [µM]	inhibition [12]	inhibition [21]	Molecule	GI50 [9] [µM]	GI50 [13] [µM]	GI50 [14] [µM]	GI50 [15] [µM]	GI50 [16] [µM]	GI50 [17] [µM]	GI50 at 48 h [18] [µM]	GI50 at 48 h [19] [µM]	GI50 at 48 h [20] [µM]	other results
			L-lactate dehydrogenase A chain (Homo sapiens) (from UniProt P00338)										Km [1]: 254 µM; Km [2]: 170 µM; Km [3]: 172 µM; Km [4]: 189 µM; Vmax [5]: 4.54; Vmax [6]: 3.6; Vmax [7]: 5.84; Vmax [8]: 5.01
			COC(=O)c1cc2c(C(F)(F)F)cc(-c3ccccc3)cc2n1O	106									
0.025	Dose-dependent-effect	Dose-dependent-effect	CCCCCCOCc1c(C(=O)OC)n(O)c2cccc(Br)c12	27	45.6	31.7	31.4	60.9	39.6	> 100	49.6	> 100	Vmax/Km [10]: 0.056; Vmax/Km [11]: 0.047; IC50 [21]: 11.6 µM; Activity [22]: Active; Activity [23]: Active; Activity [24]: Active; Activity [25]: Active; Activity [26]: Active; Activity [27]: Non-toxic; Activity [28]: Active; Activity [29]: Non-toxic; Activity [30]: Non-toxic
0.124	Dose-dependent-effect	inactive	COC(=O)c1c(COCCc2ccccc2)c2c(Br)cccc2n1OC	> 100	> 100	> 100	> 100	66.7	83.5	> 100	56.2	85.2	Vmax/Km [31]: 0.029; Vmax/Km [32]: 0.038
